Measured values taken from ChEMBL document CHEMBL1201862, “PubChem BioAssay data set” (2004).
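Where inhibition never reached the appropriate level, the endpoint shown equals the highest concentration tested. Otherwise, values were interpolated linearly from a five-concentration, 48-hour dose response in 96-well plates. Abbreviation: GI50, concentration required for 50% inhibition of growth.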 Calls of active or inactive are those of the source. Cut-off read from the data, not from the text of the source: active = GI50 up to about 1.1 µM and inactive = higher.

Tests used:
Experiment in all cases: DTP human tumour cell line panel, 48 h
COLO 205 = test system: COLO 205
IGROV-1 = test system: IGROV-1
HCT-116 = test system: HCT-116
NCI-H522 = test system: NCI-H522
OVCAR-4 = test system: OVCAR-4
CAKI-1 = test system: CAKI-1
DU-145 = test system: DU-145
UACC-257 = test system: UACC-257
NCI/ADR-RES = test system: NCI/ADR-RES
MDA-MB-435 = test system: MDA-MB-435
A498 = test system: A498
786-0 = test system: 786-0
Malme-3M = test system: Malme-3M
HT-29 = test system: HT-29
MOLT-4 = test system: MOLT-4
HL-60 = test system: HL-60
SF-295 = test system: SF-295
HOP-92 = test system: HOP-92

Compound	GI50 (COLO 205)	GI50 (IGROV-1)	GI50 (HCT-116)	GI50 (NCI-H522)	GI50 (OVCAR-4)	GI50 (CAKI-1)	GI50 (DU-145)	GI50 (UACC-257)	GI50 (NCI/ADR-RES)	GI50 (MDA-MB-435)	GI50 (A498)	GI50 (786-0)	GI50 (Malme-3M)	GI50 (HT-29)	GI50 (MOLT-4)	GI50 (HL-60)	GI50 (SF-295)	GI50 (HOP-92)
O=C(O)c1cncc(C(=O)O)c1	> 100 µM (inactive)	> 100 µM (inactive)	> 100 µM (inactive)	> 100 µM (inactive)	> 100 µM (inactive)	> 100 µM (inactive)	> 100 µM (inactive)	> 100 µM (inactive)	> 100 µM (inactive)	> 100 µM (inactive)	> 100 µM (inactive)	> 100 µM (inactive)	> 100 µM (inactive)	> 100 µM (inactive)	> 100 µM (inactive)	> 100 µM (inactive)	> 100 µM (inactive)	–
Cc1cccc(C(C)O)n1 (stereo not drawn)	> 100 µM (inactive)	> 100 µM (inactive)	> 100 µM (inactive)	> 100 µM (inactive)	> 100 µM (inactive)	> 100 µM (inactive)	> 100 µM (inactive)	> 100 µM (inactive)	> 100 µM (inactive)	–	> 100 µM (inactive)	> 100 µM (inactive)	24 µM (inactive)	> 100 µM (inactive)	> 100 µM (inactive)	> 100 µM (inactive)	> 100 µM (inactive)	–
Cc1ccccc1/N=N/c1ccc(/N=N/c2c(O)ccc3ccccc23)c(C)c1 [SCARLET RED]	> 100 µM (inactive)	> 100 µM (inactive)	> 100 µM (inactive)	> 100 µM (inactive)	> 100 µM (inactive)	> 100 µM (inactive)	> 100 µM (inactive)	> 100 µM (inactive)	> 100 µM (inactive)	> 100 µM (inactive)	> 100 µM (inactive)	> 100 µM (inactive)	> 100 µM (inactive)	> 100 µM (inactive)	> 100 µM (inactive)	–	56.8 µM (inactive)	> 100 µM (inactive)
Cc1ccc(/C=N/Nc2cnccn2)s1	> 100 µM (inactive)	> 100 µM (inactive)	> 100 µM (inactive)	83 µM (inactive)	> 100 µM (inactive)	> 100 µM (inactive)	–	> 100 µM (inactive)	> 100 µM (inactive)	> 100 µM (inactive)	–	> 100 µM (inactive)	> 100 µM (inactive)	47.1 µM (inactive)	65.2 µM (inactive)	> 100 µM (inactive)	> 100 µM (inactive)	> 100 µM (inactive)
CCOP(=O)(Nc1ccc(-c2ccc(N)cc2)cc1)OCC	> 100 µM (inactive)	> 100 µM (inactive)	99.8 µM (inactive)	> 100 µM (inactive)	> 100 µM (inactive)	> 100 µM (inactive)	> 100 µM (inactive)	> 100 µM (inactive)	> 100 µM (inactive)	> 100 µM (inactive)	> 100 µM (inactive)	> 100 µM (inactive)	> 100 µM (inactive)	> 100 µM (inactive)	> 100 µM (inactive)	–	84.5 µM (inactive)	> 100 µM (inactive)
COc1cccc(C(C#N)NC23CC4CC(CC(C4)C2)C3)c1 (stereo not drawn)	> 100 µM (inactive)	> 100 µM (inactive)	> 100 µM (inactive)	> 100 µM (inactive)	> 100 µM (inactive)	> 100 µM (inactive)	> 100 µM (inactive)	> 100 µM (inactive)	> 100 µM (inactive)	> 100 µM (inactive)	–	> 100 µM (inactive)	> 100 µM (inactive)	> 100 µM (inactive)	> 100 µM (inactive)	> 100 µM (inactive)	> 100 µM (inactive)	> 100 µM (inactive)
CC1C(=O)C23OC[C@@]1(C)C1(O)CC[C@@H](C)[C@]21CC3=O (stereo partly drawn)	> 100 µM (inactive)	> 100 µM (inactive)	> 100 µM (inactive)	> 100 µM (inactive)	> 100 µM (inactive)	–	> 100 µM (inactive)	> 100 µM (inactive)	> 100 µM (inactive)	> 100 µM (inactive)	–	> 100 µM (inactive)	> 100 µM (inactive)	> 100 µM (inactive)	> 100 µM (inactive)	> 100 µM (inactive)	> 100 µM (inactive)	–
Clc1nc2n(c1/C=C/c1cccs1)CCS2	37.8 µM (inactive)	32 µM (inactive)	25.4 µM (inactive)	35.1 µM (inactive)	64 µM (inactive)	18.8 µM (inactive)	28.6 µM (inactive)	57.5 µM (inactive)	29.6 µM (inactive)	31.1 µM (inactive)	20 µM (inactive)	20 µM (inactive)	90.8 µM (inactive)	24.3 µM (inactive)	11.3 µM (inactive)	6 µM (inactive)	29.6 µM (inactive)	–
COc1ccc2c(n1)Sc1nc3ccccc3nc1N2	> 100 µM (inactive)	5.92 µM (inactive)	33.7 µM (inactive)	78 µM (inactive)	67.3 µM (inactive)	88.3 µM (inactive)	> 100 µM (inactive)	> 100 µM (inactive)	24.7 µM (inactive)	55.1 µM (inactive)	> 100 µM (inactive)	26.8 µM (inactive)	29 µM (inactive)	85.7 µM (inactive)	13.8 µM (inactive)	–	26.7 µM (inactive)	78.5 µM (inactive)
O=C1NC2=NN=C(c3ccc(Br)cc3)CN2NC12c1ccccc1-c1ccccc12	> 100 µM (inactive)	> 100 µM (inactive)	> 100 µM (inactive)	> 100 µM (inactive)	> 100 µM (inactive)	> 100 µM (inactive)	> 100 µM (inactive)	> 100 µM (inactive)	> 100 µM (inactive)	> 100 µM (inactive)	> 100 µM (inactive)	> 100 µM (inactive)	> 100 µM (inactive)	> 100 µM (inactive)	–	–	> 100 µM (inactive)	> 100 µM (inactive)
O=[N+]([O-])C(=C1NCCN1)/C(Cl)=C(/Cl)N1CCOCC1	> 100 µM (inactive)	–	> 100 µM (inactive)	–	> 100 µM (inactive)	> 100 µM (inactive)	> 100 µM (inactive)	> 100 µM (inactive)	> 100 µM (inactive)	> 100 µM (inactive)	> 100 µM (inactive)	> 100 µM (inactive)	> 100 µM (inactive)	> 100 µM (inactive)	> 100 µM (inactive)	–	> 100 µM (inactive)	–
NC(CC1=CS(=O)(=O)c2ccc(Cl)cc21)C(=O)O (stereo not drawn)	> 100 µM (inactive)	> 100 µM (inactive)	> 100 µM (inactive)	> 100 µM (inactive)	> 100 µM (inactive)	> 100 µM (inactive)	> 100 µM (inactive)	54.7 µM (inactive)	> 100 µM (inactive)	> 100 µM (inactive)	> 100 µM (inactive)	> 100 µM (inactive)	76.7 µM (inactive)	> 100 µM (inactive)	> 100 µM (inactive)	–	83.6 µM (inactive)	> 100 µM (inactive)
COc1ccc(N2C(=O)CC(Cl)C2=O)cc1 (stereo not drawn)	16.4 µM (inactive)	> 100 µM (inactive)	18.2 µM (inactive)	17.5 µM (inactive)	19.1 µM (inactive)	–	94.6 µM (inactive)	16.1 µM (inactive)	32.4 µM (inactive)	> 100 µM (inactive)	> 100 µM (inactive)	17.7 µM (inactive)	17.5 µM (inactive)	17.8 µM (inactive)	–	–	–	27.5 µM (inactive)
COC(=O)C1CCC(=S)N1C(=O)OCc1ccccc1 (stereo not drawn)	> 100 µM (inactive)	> 100 µM (inactive)	83.9 µM (inactive)	86.7 µM (inactive)	> 100 µM (inactive)	> 100 µM (inactive)	> 100 µM (inactive)	66.4 µM (inactive)	> 100 µM (inactive)	> 100 µM (inactive)	> 100 µM (inactive)	> 100 µM (inactive)	> 100 µM (inactive)	> 100 µM (inactive)	> 100 µM (inactive)	–	78 µM (inactive)	> 100 µM (inactive)
CN1C(=S)C(c2ccccc2)Sc2ccccc21 (stereo not drawn)	47.4 µM (inactive)	> 100 µM (inactive)	38.8 µM (inactive)	54.3 µM (inactive)	> 100 µM (inactive)	> 100 µM (inactive)	> 100 µM (inactive)	30.8 µM (inactive)	> 100 µM (inactive)	57 µM (inactive)	–	> 100 µM (inactive)	97.7 µM (inactive)	> 10 µM (inactive)	7.29 µM (inactive)	87.5 µM (inactive)	17.4 µM (inactive)	–
Cc1c(C(=O)C/C(=N/NC(=O)c2ccccc2)C(=O)Nc2ccc(Cl)cc2)[n+]([O-])c2ccccc2[n+]1[O-]	> 100 µM (inactive)	99.5 µM (inactive)	> 100 µM (inactive)	38.4 µM (inactive)	> 100 µM (inactive)	82.4 µM (inactive)	–	69.8 µM (inactive)	–	–	> 100 µM (inactive)	> 100 µM (inactive)	> 100 µM (inactive)	> 100 µM (inactive)	47 µM (inactive)	29 µM (inactive)	63.8 µM (inactive)	–
O=S1(=O)c2ccccc2Oc2ccc(C(/C=N/O)=N/O)cc21	> 100 µM (inactive)	29.2 µM (inactive)	43.7 µM (inactive)	12.1 µM (inactive)	39.1 µM (inactive)	16.5 µM (inactive)	11.2 µM (inactive)	–	17.4 µM (inactive)	17.5 µM (inactive)	–	46.1 µM (inactive)	0.132 µM (active)	63.8 µM (inactive)	27.5 µM (inactive)	17.3 µM (inactive)	18.2 µM (inactive)	45.2 µM (inactive)
